The record followed here is patent US11976083B2, “Inhibitors of peptidylarginine deiminases” (Gilead Sciences, Inc., priority 2020, dated 2024).

The assay addresses T1, human PAD4 (Homo sapiens, UniProt Q9UM07).
T1 construct: human PAD4 (NM_012387), A2-P663, was PCR amplified; His-SUMO (N, cleaved yes); made in house; host or cells: E. coli BL21(DE3)
Kind of assay: In vitro PAD4 BAEE biochemical assay. The settings on record: BAEE substrate 3 mM, 5 nM PAD4, 2 mM calcium chloride; geometric mean of multiple experiments. The procedure, abridged: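 Recombinant human PAD4 (5 nM final) with 2 mM CaCl2 was preincubated with compound 30 min at 25 °C in MOPS buffer pH 7.6, then reacted with 3 mM BAEE for 2 h at 25 °C. After EDTA stop, released ammonia was detected by o-phthalaldehyde/DTT fluorescence (ex 405/em 535 nm); IC50 from four-parameter fit, geometric mean.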

T1 sequence (Q9UM07 2-663): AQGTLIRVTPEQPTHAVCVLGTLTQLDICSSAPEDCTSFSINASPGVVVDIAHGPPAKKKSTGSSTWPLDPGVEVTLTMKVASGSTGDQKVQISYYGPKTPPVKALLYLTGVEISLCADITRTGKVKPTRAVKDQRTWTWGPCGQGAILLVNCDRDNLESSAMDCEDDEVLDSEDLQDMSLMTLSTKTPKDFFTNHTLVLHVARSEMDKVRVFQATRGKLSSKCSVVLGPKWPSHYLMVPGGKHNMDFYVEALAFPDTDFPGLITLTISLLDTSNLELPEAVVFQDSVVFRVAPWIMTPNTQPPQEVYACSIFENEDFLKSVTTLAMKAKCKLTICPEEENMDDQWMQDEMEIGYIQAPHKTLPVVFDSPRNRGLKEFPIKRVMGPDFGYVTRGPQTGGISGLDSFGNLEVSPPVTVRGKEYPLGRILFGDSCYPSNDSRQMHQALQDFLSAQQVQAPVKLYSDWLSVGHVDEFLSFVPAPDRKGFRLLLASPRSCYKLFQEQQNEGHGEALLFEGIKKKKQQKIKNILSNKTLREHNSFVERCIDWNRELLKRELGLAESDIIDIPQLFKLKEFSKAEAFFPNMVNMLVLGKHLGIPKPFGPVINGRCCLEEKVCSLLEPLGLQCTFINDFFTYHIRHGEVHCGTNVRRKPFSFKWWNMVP

A word on the IC50: it is the midpoint of a concentration-inhibition curve. With `C[C@H]1NC(=O)c2ccc(Cl)nc2CCCCCn2c(-c3nc4cc(C(=O)N5C[C@H](N)[C@@H]6CC[C@H]5C6)cc(F)c4n3C)cc3ccc1nc32` [Example 469, (2~{R})-17-[5-[(1~{S),4~{R},5~{R})-4-amino-2-azabicyclo[3.2.1]octane-2-carbonyl]-7-fluoro-1-methyl-benzimidazol-2-yl]-8-chloro-2-methyl-3,9,16,22-tetrazatetracyclo[14.5.2.0^{5,10).0^ {19,23)]tricosa-1(21),5(10),6,8,17,19,22-heptaen-4-one], the IC50 came out at 21 nM.
Take `COc1cc(C(=O)N2[C@H]3CC[C@@H]2[C@H](N)C3)cc2nc(-c3cc4ccc5nc4n3CCCCc3cccc(c3F)C(=O)N[C@@H]5C)n(C)c12` [Example 38, (2~{R})-15-[5-[(1~{R},2~{R},4~{S})-2-amino-7-azabicyclo[2.2.1]heptane-7-carbonyl]-7-methoxy-1-methyl-benzimidazol-2-yl]-22-fluoro-2-methyl-3,14,20-triazatetracyclo[12.5.2.1^{5,9}.0^{17,21}] docosa-1(20),5,7,9(22),15,17(21),18-heptaen-4-one]: the IC50 was found to be 1200 nM.
Turning to `COc1cc(C(=O)N2CC[C@@H](OC)[C@@H](N)C2)cc2nc(-c3cc4ccc5nc4n3CC(F)(F)CCCOC3(CC3)C(=O)N[C@@H]5C)n(C)c12` [Example 589, (11~{R})-17-[5-[(3~{S},4~ {R})-3-amino-4-methoxy-piperidine-1-carbonyl]-7-methoxy-1-methyl-benzimidazol-2-yl]-3,3-difluoro-11-methyl-spiro[7-oxa-1,10,19-triazatricyclo[10.5.2.0^ {15,18}]nonadeca-12(19), 13,15(18),16-tetraene-8,1′-cyclopropane]-9-one], the IC50 was 145 nM.
For `COc1cc(C(=O)N2CC[C@@H](OC)[C@@H](N)C2)cc2nc(-c3cc4ccc5nc4n3CCCC(F)(F)C[C@H]3C[C@@H]3C(=O)N[C@@H]5C)n(C)c12` [Example 856, (2~{R},5~{S},7~{R})-14-[5-[(3~{S),4~{R})-3-amino-4-methoxy-piperidine-1-carbonyl]-7-methoxy-1-methyl-benzimidazol-2-yl]-9,9-difluoro-2-methyl-3,13,19-triazatetracyclo [11.5.2.0^{5,7}.0^{16,20}] icosa-1(19),14,16(20), 17-tetraen-4-one] the value was 156 nM; for `COc1cc(C(=O)N2CC[C@@H](OC)[C@@H](N)C2)cc2nc(-c3cc4ccc5nc4n3CC(F)(F)CCC[C@@H]3C[C@H]3C(=O)N[C@@H]5C)n(C)c12` [Example 848, (2~{R},5~{R},7~{R})-14-[5-[(3~{S},4~{R})-3-amino-4-methoxy-piperidine-1-carbonyl]-7-methoxy-1-methyl-benzimidazol-2-yl]-11,11-difluoro-2-methyl-3,13,19-triazatetracyclo[11.5.2.0^ {5,7}.0^{16,20}]icosa-1(19),14,16(20),17-tetraen-4-one], 33 nM; for `CO[C@@H]1CCN(C(=O)c2cc(F)c3c(c2)nc(-c2cc4ccc5nc4n2CC(F)(F)CCC[C@@H]2C[C@H]2C(=O)N[C@@H]5C)n3C)C[C@@H]1N` [Example 738, (2~{R},5~{R},7~{R})-14-[5-[(3~{S},4~{R})-3-amino-4-methoxy-piperidine-1-carbonyl]-7-fluoro-1-methyl-benzimidazol-2-yl]-11,11-difluoro-2-methyl-3,13,19-triazatetracyclo[11.5.2.0^ {5,7}.0^{16,20}] icosa-1(19),14,16(20), 17-tetraen-4-one], 48 nM.
Regarding “(2~{R})-17-[5-[(1~{S),4~{R}, 5~{R})-4-amino-2-azabicyclo [3.2.1]octane-2-carbonyl]-1- cyclopropyl-benzimidazol-2- yl]-8-chloro-2-methyl-3,9,16,22- tetrazatetracyclo[14.5.2.0^ {5,10}.0^{19,23}]tricosa- 1(22),5(10),6,8,17,19(23),20- heptaen-4-one [Example 926]”, the IC50 stood at 23 nM.
Consider `COc1cc(C(=O)N2C[C@H](N)[C@H](O)[C@@H](F)C2)cc2nc(-c3cc4ccc5nc4n3CC(F)(F)CCC[C@@H]3C[C@H]3C(=O)N[C@@H]5C)n(C)c12` [Example 678, (2~{R},5~{R},7~{R})-14-[5-[(3~{S},4~{S},5~ {S})-3-amino-5-fluoro-4-hydroxy-piperidine-1-carbonyl]-7-methoxy-1-methyl-benzimidazol-2-yl]-11,11-difluoro-2-methyl-3,13,19-triazatetracyclo[11.5.2.0^ {5,7}.0^{16,20}]icosa-1(19), 14,16(20),17-tetraen-4-one], for which the IC50 was 15 nM.
With `COc1cc(C(=O)N2CC[C@@H](OC)[C@@H](N)C2)cc2nc(-c3cc4ccc5nc4n3CCCCCCC(C)(C)C(=O)N[C@@H]5C)n(C)c12` [Example 60, (11~{R})-17-[5-[(3~{S},4~{R})-3-amino-4-methoxy-piperidine-1-carbonyl]-7-methoxy-1-methyl-benzimidazol-2-yl]-8,8,11-trimethyl-1,10,19-triazatricyclo[10.5.2.0^{15,18}]nonadeca-12(19),13,15(18),16-tetraen-9-one], the concentration for half-maximal inhibition (IC50) came to 118 nM.
`COc1cc(C(=O)N2CCC[C@@H](N)C2)cc2nc(-c3cc4ccc5nc4n3CCCCCCCC(=O)N[C@@H]5C(F)(F)F)n(C)c12` (single isomer, unassigned) [Example 235, (11˜{S})-17-[5-[(3˜{R})-3-aminopiperidine-1-carbonyl]-7-methoxy-1-methyl-benzimidazol-2-yl]-11-(trifluoromethyl)-1,10,19-triazatricyclo[10.5.2.0^{15,18}]nonadeca-12(19),13,15(18),16-tetraen-9-one]: the IC50 was 113 nM.
As for `COc1cc(C(=O)N2[C@H]3CC[C@@H]2[C@H](N)C3)cc2nc(-c3cc4ccc5nc4n3C[C@H]3C[C@@H]3COCCC(=O)N[C@@H]5C)c(C3CC3)n12` [Example 214, (3~{S),5~{S},12~{R})-18-[7-[(1~{R},2~{R},4~{S})-2-amino-7-azabicyclo[2.2.1]heptane-7-carbonyl]-3-cyclopropyl-5-methoxy-imidazo[1,2-a]pyridin-2-yl]-12-methyl-7-oxa-1,11,20-triazatetracyclo[11.5.2.0^{3,5}.0^{16,19}] icosa-13(20),14,16(19),17-tetraen-10-one], the half-inhibitory concentration (IC50) worked out at 15 nM.
For `COc1cc(C(=O)N2C[C@H](N)[C@@H]3CC[C@H]2C3)cc2nc(-c3cc4ccc5nc4n3CCCCCc3nc(Cl)ccc3C(=O)N[C@@H]5C)c(C3CC3)n12` [Example 768, (2~{R})-17-[7-[(1~{S},4~{R}, 5~{R})-4-amino-2-azabicyclo [3.2.1]octane-2-carbonyl]-3-cyclopropyl-5-methoxy-imidazo[1,2-a]pyridin-2-yl]-8-chloro-2-methyl-3,9,16,22-tetrazatetracyclo[14.5.2.0^ {5,10}.0^{19,23}]tricosa-1(22),5(10),6,8,17,19(23),20-heptaen-4-one] the value was 59 nM.
Turning to `COc1cc(C(=O)N2CCC[C@@H](N)C2)cc2nc(-c3cc4ccc5nc4n3CCCCOCC(=O)N3CCC[C@H]53)n(C)c12` [Example 109, (2~{R})-15-[5-[(3~{R})-3-aminopiperidine-1-carbonyl]-7-methoxy-1-methyl-benzimidazol-2-yl]-9-oxa-6,14,20-triazatetracyclo[12.5.2.0^{2,6}.0^{17,21}] henicosa-1(20),15,17(21),18-tetraen-7-one], the half-inhibitory concentration (IC50) came out at 303 nM.
As for `COc1cc(C(=O)N2C[C@H]3CC[C@@H]2[C@@H]3N)cc2nc(-c3cc4ccc5nc4n3CCCCCCCC(=O)N[C@@H]5C)n(C)c12` [Example 288, (11~{R})-17-[5-[(1~{R},4~{R},7~{R})-7-amino-2-azabicyclo[2.2.1]heptane-2-carbonyl]-7-methoxy-1-methyl-benzimidazol-2-yl]-11-methyl-1,10,19-triazatricyclo[10.5.2.0^{15,18}]nonadeca-12(19),13,15(18),16-tetraen-9-one], the IC50 was found to be 36 nM.
With `COc1cc(C(=O)N2C[C@H](N)[C@H](OC)[C@@H](F)C2)cc2nc(-c3cc4ccc5nc4n3CC(F)(F)CCC[C@@H]3C[C@H]3C(=O)N[C@@H]5C)n(C)c12` [Example 681, (2~{R},5~{R},7~{R})-14-[5-[(3~{S},4~{S}, 5~{S})-3-amino-5-fluoro-4-methoxy-piperidine-1-carbonyl]-7-methoxy-1-methyl-benzimidazol-2-yl]-11,11-difluoro-2-methyl-3,13,19-triazatetracyclo [11.5.2.0^{5,7}.0^{16,20}] icosa-1(19),14,16(20), 17-tetraen-4-one], the IC50 is 39 nM.
As for `COc1cc(C(=O)N2C[C@H]3CC[C@@H]2[C@@H]3N)cc2nc(-c3cc4ccc5nc4n3CCCCCCCCCC(=O)N[C@@H]5C)c(C)n12` [Example 290, (13~{R})-19-[7-[(1~{R},4~{R},7~{R})-7-amino-2-azabicyclo[2.2.1]heptane-2-carbonyl]-5-methoxy-3-methyl-imidazo[1,2-a]pyridin-2-yl]-13-methyl-1,12,21-triazatricyclo[12.5.2.0^{17,20}]henicosa-14(21),15,17(20),18-tetraen-11-one], the IC50 was found to be 221 nM.
For the molecule `COc1cc(C(=O)N[C@H]2CNCC[C@H]2F)cc2nc(-c3cc4ccc5nc4n3CCCCCCC(C)(C)C(=O)N[C@@H]5C)n(C)c12` [Example 69, ~{N}-[(3~{S},4~{R})-4-fluoro-3-piperidyl]-7-methoxy-1-methyl-2-[(11~{R})-8,8,11-trimethyl-9-oxo-1,10,19-triazatricyclo[10.5.2.0^{15,18}]nonadeca-12(19),13,15(18),16-tetraen-17-yl]benzimidazole-5-carboxamide], the IC50 came out at 201 nM.
